Broadly, the Cmax is the highest concentration seen after dosing.

Consider 3 compounds from patent publication US12310950B2, “Formulations of pyrrolopyridine-aniline compounds” (NFLECTION THERAPEUTICS, INC., priority 2021, dated 2025).

Series [1] relates to p-ERK. Briefly: Ex vivo cutaneous neurofibroma explants (Example 20): p-ERK by immunohistochemistry. The format is cell-based, human. Particulars: 3 μl of gel formulation on explant; 0.1% or 0.5% by weight. How it is done: The study was conducted using a protocol similar to Example 16 with some modifications as described below.
Skin samples divided to smaller 3-4 mm pieces and placed dermal side down onto membranes. The edges of the samples were sealed with semisoft 3% agarose prepared in DMEMF-12 medium, and the apical surface was kept in contact with air to use formulations. The basal surface was in contact with the growth medium DMEMF-12 containing 10% human serum, Amphotericin B, Penicillin-Streptomycin and 1XB27. This set up enables testing of transdermal drug delivery while the tissues remain viable in the medium for the duration of the test. 3 μl of the test formulation was used.
Immunohistochemistry: Immunohistochemistry for p-ERK was performed using standard operating procedures and fully automated workflow.
3 μl of the test formulation was used.

For series [2] the following is noted: systemic exposure; cited from earlier work.
In series [3] the test system is p-ERK. Briefly: p-ERK suppression in rat skin by oral administration. The format is in vivo. How it is done:
p-ERK suppression in rat skin was evaluated by oral administration of Compound 1.003.

Another series can be described thus: in vivo. The settings on record: rat, po, 300 mg/kg/day.
Series [4] concerns p-ERK. Briefly: Minipig non-GLP 28-day dermal tolerability study: p-ERK suppression in skin. It is filed as in vivo. The settings on record: Compound 1.003 in gel formulation (NA-1a), 0.01% and 0.1%, 28 days. As for the experimental part: Non-GLP 28-Day Dermal Tolerability Study: 4 doses of A-D formulations applied to each of 4 pigs (2 females, 2 males), where A: vehicle (NA-1a without Compound 1.003) at 30 uL/cm^2; B: NA-1a-0.01% at 10 uL/cm^2; C: NA-1a-0.1% at 30 uL/cm^2; and D: NA-1a-0.1% at 10 uL/cm^2. Minipigs were treated […] for 28 days. Biopsy obtained 4 hours after last dose on Day 28.

A further series relates to ICI. Briefly: CellTiter-Glo Luminescent Cell Viability Assay, SCC cells ICI. The format is cell-based, human. Particulars: 72 hours, 0.01-30 μM, compared to NHEK.
Series [5] has as its system cSCC. Briefly: UV-driven mouse model of cSCC, split-mouse study: total tumor burden. The format is in vivo, Hairless SKH-1E mice. Particulars: split-control, 1.0% Compound 1.003 on one side, vehicle on the other, 30 days, n=5. How it is done: To internally control for potential systemic exposure, 5 mice were treated in split-control fashion with one side getting vehicle only and the other side of the same mouse receiving topical 1.0% Compound 1.003. Total tumor burden (summed volume) is quantified in untreated vs. treated sides at the beginning (black) as compared to the end of treatment 30 days later (n=5).
To definitively address the possibility of systemic exposure and non-local effects of topically applied Compound 1.003, 5 mice was treated in split-control fashion with one side with vehicle only and the other side with 1.0% Compound 1.003.

Series [6] concerns phosphorylated-ERK1/2 (pERK). Briefly: Human cSCC explant: immunohistochemistry for p-ERK. It is filed as cell-based. The settings on record: 0.1% Compound 1.003 in NA-1a gel formulation on epidermal surface for 4 hours, vs vehicle.
For series [7], the system named is cSCC. Put plainly: UV-driven mouse model of cSCC, chemoprevention study: number of tumors. The format is in vivo, Hairless SKH-1E mice. As for the experimental part:
136, no. 9, 2016, pp. 1920-1924 by Adelmann, C. H., et al., the entirety of which is incorporated herein by reference for all purposes. UV radiation was administered using a solar simulator (Oriel) metered at 12.5 kJ/m^2 UVB weekly, 3.4 SED for three months on Hairless SKH-1E mice.
Samples: The gel formulation (NA-1a) including Compound 1.003 in an amount of 0.1%, 0.5%, 1.0%, and 2.3% by weight of the formulation was used in the study.
(§1) A UV-driven mouse model was used to test if a topical formulation including Compound 1.003 could be used to reduce tumor burden in vivo. […] Once a mouse developed one tumor that measured 3 mm in diameter, they were randomly assigned to receive Vehicle, 0.1% Compound 1.003, 0.5% Compound 1.003, 1.0% Compound 1.003, or 2.3% Compound 1.003. Once enrolled, mice were treated with 200 uL of vehicle or the gel formulation of Compound 1.003. Drug was evenly applied to the back skin of the mouse and allowed to dry. Mice were treated for 30 days (5 d/week). […] Skin biopsies were obtained 4 hours after drug treatment at end of study.

The next series deals with p-ERK1/2. Put plainly: UV-driven mouse model of cSCC: nano-immunoassay for p-ERK1/2 and total ERK1/2 in skin biopsies. It is filed as in vivo, Hairless SKH-1E mice. As for the experimental part:
as §1

In another series the test system is COLO 16. Put plainly: CellTiter-Glo Luminescent Cell Viability Assay, SCC cells COLO 16. It is filed as cell-based, human. The settings on record: 72 hours, 0.01-30 μM, compared to NHEK. For orientation: In ATP-based viability assays light output follows the ATP content of the culture.
The subject of series [8] is p-ERK. Briefly: Ex vivo human cutaneous neurofibroma explants (Example 16): p-ERK by Western Blot. Particulars: Compound 1.003 0.5% and 1.5%, topical on explant, 4 hours. It is filed as cell-based. How it is done: Biopsies of cutaneous neurofibroma were taken from patients undergoing excision of neurofibromas for clinical purposes. The ex vivo human explant model was established by incubating sections of biopsies of human cutaneous neurofibroma. Cutaneous Neurofibroma samples were removed from patients, transferred immediately to the lab in 15 ml […] tubes containing 5 ml DMEM/F-12 medium (Thermo Fisher, Cat #11320033) supplemented with 1XB27 supplement (Gibco™ B-27™ Supplement (50×) serum free (Cat #17504044), 2.5 μg/ml of Amphotericin B (Thermo Fisher, Cat #15290018), and 50 units/ml of Penicillin-50 μg/ml of Streptomycin (Thermo Fisher, Cat #15070063), and 10% human serum (Gemini 100-110). Skin samples divided to smaller 3-4 mm pieces and placed dermal side down onto membranes (Transwell Permeable Supports, 12 well plate, Corning 12 mm Transwell® with 3.0 μm Pore Polycarbonate Membrane Insert, Sterile Corning #3402). The edges of the samples were sealed with semisoft 3% agarose (Sigma, CAS 9012-36-6) prepared in DMEMF-12 medium, and the apical surface was kept in contact with air to use formulations. […]
Western Blot analysis: Frozen skin samples were thawed on ice and weighed. […] The lysate protein concentration was determined by the BCA protein assay kit using bovine serum albumin (BSA) as standards. […]

Series [9] can be described thus: UV-driven mouse model of cSCC: tolerability (skin, body weight). It is filed as in vivo, Hairless SKH-1E mice. The settings on record: topical 0.1%-2.3%, 30 days. How it is done:
as §1

Entries after “also recorded” stand apart in the source; their conditions may differ.

For the compound `O=C1CCCc2c1sc(Nc1ccc(I)cc1F)c2C(=O)NOCCO` [Compound 2.003], the “suppression of p-ERK by immunohistochemistry” value in the series on p-ERK [1] is reported as “Dose dependent suppression”.
Regarding `O=C(NOC[C@H](O)CO)c1ccc(F)c(F)c1Nc1ccc(I)cc1F` [PD0325901], the “side effects in clinical trials” value in series [2] was “neurological side effects associated with ataxia, confusion, and syncope”.
Consider `Cn1c(Nc2ccc(I)cc2F)c(C(=O)NOCCO)c2cccnc21` [Compound 1.003], for which the “change of p-ERK after oral administration (FIG. 2)” value in the series on p-ERK [3] (rat skin, oral, various doses) is given as “no change of p-ERK”. For the same compound, the “suppression of p-ERK in the skin” value with p-ERK [3] (rat, 21-days of oral administration at 300 mg/kg/day) was “not observed”. Further, the Cmax in the series “in vivo” was approximately 1360 ng/mL. Besides, in the series with p-ERK [4], the “suppression of p-ERK in minipig skin (FIG. 1)” value is given as “dose dependent suppression of p-ERK”. For the same compound, the “cell viability, ICI” value with ICI is given as “dose dependent reduction in cell viability”. For the same compound, the “total tumor volume / tumor burden on the treated side” value with cSCC [5] is “Substantial tumor regression and tumor suppression; also recorded: decreased to nearly undetectable levels”. Moreover, the “suppression of p-ERK in human cSCC specimens (immunohistochemistry)” value in series [6] is “robust suppression of p-ERK”. Also, the “number of tumors at the end of treatment, 0.1%” value in the series on cSCC [7] (0.1% in gel (NA-1a), 30 days, n=10 mice, vehicle 60 tumors) stood at 31 tumors. Further, in the series with cSCC [7] (0.5% in gel (NA-1a), 30 days, n=10 mice, vehicle 60 tumors), the “number of tumors at the end of treatment, 0.5%” value worked out at 23 tumors. In the series with cSCC [7] (1.0% dose and above, 30 days, n=10 per group), the “suppression of new tumors at 1.0% dose and above” value was “near complete suppression of new tumors”. In the series with cSCC [7] (1.0% in gel (NA-1a), 30 days, n=10 mice, vehicle 60 tumors), the “number of tumors at the end of treatment, 1.0%” value was found to be 13 tumors. Further, the “number of tumors at the end of treatment, 2.3%” value in the series on cSCC [7] (2.3% in gel (NA-1a), 200 uL, 30 days (5 d/week), n=10 mice, vehicle 60 tumors) was found to be 16 tumors. In addition, in the series with cSCC [7] (gel formulation (NA-1a), 0.1%-2.3%, 30 days), the “total tumors / new tumor formation (FIG. 5)” value is on record as “dramatically suppresses new tumor formation; also recorded: suppression of total tumors”. The “decrease in the total number of tumors present at the end of treatment” value in the series on cSCC [7] (highest doses of Compound 1.003, vs vehicle) is listed as “approximately 4 fold”. In the series on p-ERK1/2 (0.1% and greater vs vehicle, biopsies 4 hours after drug treatment at end of study), the “p-ERK levels in skin biopsies (nano-immunoassay)” value is “suppression of p-ERK levels”. Further, in the series with p-ERK1/2 (concentrations 0.6 or greater (so in the source), in %), the “suppression of p-ERK levels in mouse skin (FIG. 6B, text)” value was not below 65. For the same compound, the “suppression of p-ERK levels in mouse skin (FIG. 6B legend)” value with p-ERK1/2 (mouse skin treated with Compound 1.003) is not below 65%. The “cell viability, COLO 16” value in the series with COLO 16 is “dose dependent reduction in cell viability”. Besides, in the series on p-ERK [1], the “suppression of p-ERK by immunohistochemistry” value was “Dose dependent suppression”. The “suppression of p-ERK by Western Blot analysis” value in the series with p-ERK [8] is “complete suppression of p-ERK”. Moreover, in [9], the “skin peeling or erosions” value is on record as “No skin peeling or erosions were observed” and the “weight loss (biweekly weight measurement)” value is given as “no weight loss”.
